Reference: ChEMBL document CHEMBL4373731, “Antiprotozoal alkaloid principles of the plant family Amaryllidaceae” (Bioorg Med Chem Lett, 2019)
Values after ≈ are worked out from the molar mass of the structure shown.

What was measured:
Trypanosoma cruzi [1] = experiment: Antitrypanosomal activity against Trypanosoma cruzi; format: functional, organism-based
Leishmania donovani [2] = experiment: […] activity against Leishmania donovani; format: functional, organism-based
Trichomonas vaginalis [3] = experiment: Antiprotozoal activity against Trichomonas vaginalis assessed as reduction in […] at 250 ug/ml at relative to control; format: functional
[4] = system: Trypanosoma brucei rhodesiense; experiment: Antitrypanosomal activity against Trypanosoma brucei rhodesiense; format: functional, organism-based
KB = experiment: Cytotoxicity against human KB cells assessed as reduction in cell viability; format: cell-based
[5] = Selectivity index, ratio of IC50 for Trypanosoma brucei rhodesiense to IC50 for human KB cells; format: toxicity; details: read-out: Ratio IC50
L6 = experiment: Cytotoxicity against rat L6 cells assessed as reduction in cell viability; format: cell-based
Trichomonas vaginalis [6] = experiment: Antitrichomonal activity against Trichomonas vaginalis assessed as reduction in parasite viability at 125 ug/ml relative to control; format: functional
Entamoeba histolytica = experiment: […] activity against Entamoeba histolytica; format: functional, organism-based
Leishmania donovani [7] = experiment: […] activity against Leishmania donovani after 48 hrs by [3H]-hypoxanthine incorporation assay; format: functional, organism-based
[8] = system: Trypanosoma brucei rhodesiense; experiment: Antitrypanosomal activity against Trypanosoma brucei rhodesiense after 48 hrs by [3H]-hypoxanthine incorporation assay; format: functional, organism-based
Trypanosoma cruzi [9] = experiment: Antitrypanosomal activity against Trypanosoma cruzi after 48 hrs by [3H]-hypoxanthine incorporation assay; format: functional, organism-based

Compound	IC50 (Trypanosoma cruzi [1]) [mg/L]	IC50 (Leishmania donovani [2]) [mg/L]	IC50 [4] [mg/L]	other results
COc1ccc2c3c1O[C@H]1C[C@H](O)C=C[C@@]31CCN(C)C2	> 30	> 30	–	–
O=C(O[C@H]1[C@H]2c3cc4c(cc3CN3CCC(=C[C@@H]1OC(=O)c1ccccc1)[C@H]23)OCO4)c1ccccc1	–	–	–	Activity (Trichomonas vaginalis [3]): 84%
O=C(O[C@H]1C=C2CCN3Cc4cc5c(cc4[C@H]([C@@H]1O)[C@@H]23)OCO5)c1ccccc1	–	–	–	Activity (Trichomonas vaginalis [3]): 35%
O=c1c2cc3c(cc2c2cccc4ccn1c42)OCO3	90 (≈ 342 µM)	–	8.4 (≈ 31.9 µM)	–
COc1cc2c(cc1OC)[C@@]13C=CC(=O)C[C@@H]1[N@](CC3)C2	–	–	2.8 (≈ 9.81 µM)	–
O[C@H]1C=C2[C@H]3CN(Cc4cc5c(cc43)OCO5)[C@H]2C[C@@H]1O	7.1 (≈ 24.7 µM)	> 30	0.7 (≈ 2.44 µM)	–
CCCCCCCCCCCC(=O)O[C@H]1C=C2CCN3Cc4cc5c(cc4[C@H]([C@@H]1O)[C@@H]23)OCO5	–	–	–	Activity (Trichomonas vaginalis [3]): 97%
COc1cc2c[n+]3c4c(cc([O-])cc4c2cc1O)CC3	> 30	> 30	> 30	–
COc1cc2c(cc1O)C[N@@]1C[C@H](O)[C@@]23C=C[C@@H](OC)C[C@H]13	88.4 (≈ 291 µM)	> 90	10.2 (≈ 33.7 µM)	–
CN1CC[C@]23c4cc5c(cc4[C@@H]4C[C@H]2[C@H](CC[C@H]13)O4)OCO5	54 (≈ 180 µM)	> 100	19.2 (≈ 64.1 µM)	–
COc1cc2c(cc1OC)[C@@H]1[C@H](OC(C)=O)[C@@H](O)C[C@H]3CC[N+]([O-])(C2)[C@H]31 (some centres undefined)	> 90	> 90	73.4 (≈ 202 µM)	IC50 (KB): > 50 mg/L; selectivity ratio [5]: > 16; IC50 (L6): > 90 mg/L
O=c1[nH]c2c(O)cccc2c2cc3c(cc12)OCO3	52.7 (≈ 207 µM)	> 90	5.99 (≈ 23.5 µM)	–
O[C@H]1[C@H]2C(=CC[C@@H]1O)[C@H]1C[N@]2Cc2cc3c(cc21)OCO3	54.6 (≈ 190 µM)	> 30	9.6 (≈ 33.4 µM)	–
[O-][N@@+]12Cc3cc4c(cc3[C@]3(C=C[C@@H](O)C[C@@H]31)[C@@H](O)C2)OCO4	> 90	> 90	> 90	–
O[C@H]1CC[C@H]2[N@@]3CC[C@@]2(c2cc4c(cc2C3)OCO4)[C@H]1O	–	–	11.1 (≈ 38.3 µM)	–
CC(=O)O[C@H]1C=C[C@@]23c4cc5c(cc4C[N@@](C[C@@H]2O)[C@H]3C1)OCO5	8.3 (≈ 25.2 µM)	17.9 (≈ 54.3 µM)	1.51 (≈ 4.58 µM)	–
COc1ccc(CNCCc2ccc(O)cc2)cc1O	58.7 (≈ 215 µM)	52.9 (≈ 194 µM)	28.6 (≈ 105 µM)	–
O=C(O[C@H]1[C@H]2c3cc4c(cc3CN3CCC(=C[C@@H]1O)[C@H]23)OCO4)c1ccc([N+](=O)[O-])cc1	–	–	–	Activity (Trichomonas vaginalis [3]): 58%
CN1CCc2cc3c(cc2C(=O)Cc2ccc4c(c2C1)OCO4)OCO3	46.3 (≈ 131 µM)	> 90	8.71 (≈ 24.6 µM)	–

Compound	IC50 (Trypanosoma cruzi [1]) [mg/L]	IC50 (Leishmania donovani [2]) [mg/L]	IC50 [4] [mg/L]	other results
c1c2c(cc3c1[C@@H]1C[C@H]4[C@H](CC[C@@H]5NCC[C@@]354)O1)OCO2	–	–	18.7 (≈ 65.5 µM)	–
O=C(O[C@H]1C=C2CCN3Cc4cc5c(cc4[C@H]([C@@H]1O)[C@@H]23)OCO5)c1ccc([N+](=O)[O-])cc1	–	–	–	Activity (Trichomonas vaginalis [3]): 79%
COc1cc2c(cc1OC)[C@@H]1[C@H](O)[C@@H](OC)[C@H](O)C3=CCN(C2)[C@H]31	–	–	3.1 (≈ 9.3 µM)	–
COc1c2c(cc3c1OCO3)[C@]13CC[N@](C2)[C@H]1CC=C[C@@H]3O	> 30	> 30	28.8 (≈ 95.6 µM)	–
O[C@@H]1CC[C@H]2N3CC[C@@]2(c2cc4c(cc2C3)OCO4)[C@@H]1O	–	–	31.9 (≈ 110 µM)	–
CC(=O)O[C@H]1C=C[C@@]23CCN(C)Cc4ccc(O)c(c42)O[C@H]3C1	2.3 (≈ 7.29 µM)	–	1.1 (≈ 3.49 µM)	–
CN1CCC2=C[C@H](O)[C@H]3OC(=O)c4cc5c(cc4[C@H]3[C@@H]21)OCO5	–	–	–	Activity (Trichomonas vaginalis [6]): 13%
COc1c2c(cc3c1OCO3)[C@@]13CC[N@@](C2)[C@@H]1C[C@@H](OC)[C@@H]1O[C@@H]13	56 (≈ 169 µM)	> 100	15 (≈ 45.4 µM)	–
COc1cc(C=O)c(-c2cccc3c2N(C)CC3)cc1OC	–	–	–	Activity (Trichomonas vaginalis [3]): 28%; Activity (Trichomonas vaginalis [6]): 28%
CC(=O)O[C@H]1[C@H]2c3cc4c(cc3CN3CCC(=C[C@@H]1OC(C)=O)[C@H]23)OCO4	1 to 8.4 (≈ 2.69 to 22.6 µM)	–	1 to 125 (≈ 2.69 to 337 µM)	Activity (Trichomonas vaginalis [3]): 19%
CO[C@@H]1C=C[C@@]23c4cc5c(cc4[C@H](O)N(C[C@@H]2O)[C@H]3C1)OCO5	1.38 to 1.4 (≈ 4.35 to 4.41 µM)	–	1.1 (≈ 3.47 µM)	–
CO[C@H]1C=C[C@@]23c4cc5c(cc4CN(C[C@@H]2O)[C@H]3C1)OCO5	–	–	–	IC50 (Entamoeba histolytica): 0.53 mg/L (≈ 1.76 µM)
CO[C@@H]1C=C[C@@]23c4cc5c(cc4[C@H](O)O[C@H]2CN(C)[C@H]3C1)OCO5	–	–	–	Activity (Trichomonas vaginalis [6]): 38%
O[C@H]1[C@H]2c3cc4c(cc3CN3CC[C@H](C[C@@H]1O)[C@H]23)OCO4	21.4 (≈ 73.9 µM)	> 90	3.1 (≈ 10.7 µM)	IC50 (KB): > 50 mg/L; selectivity ratio [5]: > 16; IC50 (L6): 27 mg/L (≈ 93.3 µM)
COC1C=C[C@@]23CCN(Cc4cc5c(cc42)OCO5)[C@@H]3C1 (some centres undefined)	55.5 (≈ 195 µM)	> 100	16.5 (≈ 57.8 µM)	–
COc1cc2c(cc1O)CN1CC[C@@]23C=CC(O)C[C@H]13 (some centres undefined)	> 90	> 90	61.5 (≈ 225 µM)	–
CO[C@@H]1C=C[C@@]23c4cc5c(cc4CN(C[C@@H]2O)[C@H]3C1)OCO5 [(+)-HAEMANTHAMINE]	1.8 to 30 (≈ 5.97 to 99.6 µM)	1.95 to 30 (≈ 6.47 to 99.6 µM)	0.49 to 3.35 (≈ 1.63 to 11.1 µM)	IC50 (Entamoeba histolytica): 0.75 mg/L (≈ 2.49 µM)
CC(=O)O[C@@H]1CC=C2CCN3Cc4cc5c(cc4[C@H]1[C@@H]23)OCO5 [ACETYLCARANINE]	35.9 (≈ 115 µM)	> 100	1.97 (≈ 6.29 µM)	–
O=C(Cn1ccnc1[N+](=O)[O-])NCc1ccccc1 [BENZNIDAZOLE]	0.36 (≈ 1.38 µM)	0.2 (≈ 0.768 µM)	0.04 (≈ 0.154 µM)	IC50 (Leishmania donovani [7]): 33.3 mg/L (≈ 128 µM); IC50 [8]: 0.001 mg/L (≈ 0.00384 µM); IC50 (Trypanosoma cruzi [9]): 5.42 mg/L (≈ 20.8 µM)

Compound	IC50 (Trypanosoma cruzi [1]) [mg/L]	IC50 (Leishmania donovani [2]) [mg/L]	IC50 [4] [mg/L]	other results
COc1c2c(cc3c1OCO3)[C@@]13CCN(C2)[C@@H]1CC=C[C@H]3O [BUPHANAMINE]	62.9 (≈ 209 µM)	> 100	28.2 (≈ 93.6 µM)	–
COc1c2c(cc3c1C(=O)O[C@H]1[C@@H]3[C@H]3C(=C[C@@H]1O)CCN3C)OCO2 [CANDIMINE]	–	–	–	Activity (Trichomonas vaginalis [3]): 60%
O[C@H]1C=C[C@@]23CCN(Cc4cc5c(cc42)OCO5)[C@@H]3C1 [CRININE]	–	–	18.9 (≈ 69.8 µM)	–
COc1ccc2c3c1O[C@H]1C[C@@H](O)C=C[C@@]31CCN(C)C2 [GALANTAMINE]	> 30	> 30	> 30	–
COc1cc2c(cc1OC)[C@@H]1[C@H](O)[C@@H](OC)C=C3CCN(C2)[C@H]31 [GALANTHINE]	–	–	3.1 (≈ 9.77 µM)	–
O[C@H]1[C@H]2c3cc4c(cc3CN3CCC(=C[C@@H]1O)[C@H]23)OCO4 [LYCORINE]	–	–	3.1 (≈ 10.8 µM)	Activity (Trichomonas vaginalis [3]): 40%; Activity (Trichomonas vaginalis [6]): 20%; IC50 (Entamoeba histolytica): 0.23 mg/L (≈ 0.801 µM)
Nc1nc(N)nc(Nc2ccc([As]3SCC(CO)S3)cc2)n1 (centres undefined) [MELARSOPROL]	0.36	0.2	0.04	IC50 (Leishmania donovani [7]): 33.3 mg/L; IC50 (Trypanosoma cruzi [9]): 5.42 mg/L
CCCCCCCCCCCCCCCCOP(=O)([O-])OCC[N+](C)(C)C [MILTEFOSINE]	0.36 (≈ 0.883 µM)	0.2 (≈ 0.491 µM)	0.04 (≈ 0.0981 µM)	–
CO[C@H]1C=C2[C@H]3CN(Cc4cc5c(cc43)OCO5)[C@H]2C[C@@H]1O [MONTANINE]	–	–	–	Activity (Trichomonas vaginalis [6]): 35%
O=C(O)c1cccnc1 [NIACIN]	> 90	57.4 (≈ 466 µM)	41.2 (≈ 335 µM)	–
COc1cc2c(cc1O)CN1CCC3=CC[C@@H](O)[C@@H]2[C@@H]31 [NORPLUVINE]	–	–	90 (≈ 329 µM)	–
Cc1ncc([N+](=O)[O-])n1CC(O)CCl (centres undefined) [ORNIDAZOLE]	–	–	–	IC50 (Entamoeba histolytica): 0.28 mg/L (≈ 1.27 µM)
COc1cc([C@@H]2c3cc4c(cc3[C@H](O)[C@H]3COC(=O)[C@H]23)OCO4)cc(OC)c1OC [PODOFILOX]	–	–	–	IC50 (KB): 0.002 mg/L (≈ 0.00483 µM); IC50 (L6): 0.005 mg/L (≈ 0.0121 µM)
COc1cc2c(cc1O)[C@@H]1[C@H](O)[C@@H](O)C=C3CCN(C2)[C@H]31 [PSEUDOLYCORINE]	> 30	> 30	–	–
CN1CC[C@@]23C=C[C@H](O)C[C@@H]2Oc2c(O)ccc(c23)C1 [SANGUININE]	> 30	> 30	22.5 (≈ 82.3 µM)	–
c1cc2c(c3c1C[C@H]1c4cc5c(cc4CCN1C3)OCO5)OCO2 [STYLOPINE]	17.5 (≈ 54.2 µM)	31.2 (≈ 96.4 µM)	10.9 (≈ 33.7 µM)	–
CO[C@@H]1C=C[C@@]23c4cc5c(cc4CO[C@]2(O)CN(C)[C@H]3C1)OCO5 [TAZETTINE]	–	–	–	Activity (Trichomonas vaginalis [6]): 15%
[O-]c1cc2c3c(c1)c1cc4c(cc1c[n+]3CC2)OCO4 [UNGEREMINE]	0.85 (≈ 3.2 µM)	> 30	0.97 (≈ 3.66 µM)	–
